Assay results from ChEMBL document CHEMBL1201862, “PubChem BioAssay data set” (2004).
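Protocol summary: plate cells (96-well), add compound at 5 concentrations, incubate 48 h, interpolate endpoints linearly. GI50 is the concentration that inhibits growth by half.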 Activity calls are given as the source filed them. Rule as the data show it: active = GI50 up to about 1.1 µM and inactive = higher.

Key:
Experiment in all cases: DTP human tumour cell line panel, 48 h
[1] = test system: 786-0
[2] = test system: A498
[3] = test system: A549
[4] = test system: ACHN
[5] = test system: BT-549
[6] = test system: CAKI-1
[7] = test system: CCRF-CEM
[8] = test system: COLO 205
[9] = test system: DU-145
[10] = test system: EKVX
[11] = test system: HCT-116
[12] = test system: HCT-15
[13] = test system: HL-60
[14] = test system: HOP-62
[15] = test system: HOP-92
[16] = test system: HT-29
[17] = test system: Hs-578T
[18] = test system: IGROV-1
[19] = test system: K562
[20] = test system: KM12
[21] = test system: LOX IMVI
[22] = test system: M14
[23] = test system: MCF7
[24] = test system: MDA-MB-231
[25] = test system: MDA-MB-435
[26] = test system: MDA-N
[27] = test system: MOLT-4
[28] = test system: Malme-3M
[29] = test system: NCI-H226
[30] = test system: NCI-H23
[31] = test system: NCI-H460
[32] = test system: NCI-H522
[33] = test system: NCI/ADR-RES
[34] = test system: OVCAR-3
[35] = test system: OVCAR-4
[36] = test system: OVCAR-5
[37] = test system: OVCAR-8
[38] = test system: PC-3
[39] = test system: RPMI-8226
[40] = test system: RXF 393
[41] = test system: SF-268
[42] = test system: SF-295
[43] = test system: SF-539
[44] = test system: SK-MEL-28
[45] = test system: SK-MEL-2
[46] = test system: SK-MEL-5
[47] = test system: SK-OV-3
[48] = test system: SN12C
[49] = test system: SNB-75
[50] = test system: SR
[51] = test system: SW-620
[52] = test system: T47D
[53] = test system: TK-10
[54] = test system: U-251
[55] = test system: UACC-257
[56] = test system: UACC-62
[57] = test system: UO-31
[58] = test system: HCC 2998
[59] = test system: SNB-19

COc1cc(CNc2ccc3nc4n(c(=O)c3c2)CCCCC4)cc(OC)c1OC
GI50 [1]: > 100 µM (inactive)
GI50 [2]: 50.6 µM (inactive)
GI50 [3]: 51.1 µM (inactive)
GI50 [4]: 35.2 µM (inactive)
GI50 [5]: 19.6 µM (inactive)
GI50 [6]: 64 µM (inactive)
GI50 [7]: 13.6 µM (inactive)
GI50 [8]: 35.9 µM (inactive)
GI50 [9]: 66.7 µM (inactive)
GI50 [10]: 36.6 µM (inactive)
GI50 [11]: 57.5 µM (inactive)
GI50 [12]: 45.6 µM
GI50 [13]: > 100 µM (inactive)
GI50 [14]: 95.1 µM (inactive)
GI50 [15]: 76 µM (inactive)
GI50 [16]: 81.7 µM (inactive)
GI50 [17]: 51.9 µM (inactive)
GI50 [18]: 95.1 µM (inactive)
GI50 [19]: > 100 µM (inactive)
GI50 [20]: 58.6 µM (inactive)
GI50 [21]: 55.2 µM (inactive)
GI50 [22]: 94.4 µM (inactive)
GI50 [23]: 32.2 µM (inactive)
GI50 [24]: 27.3 µM (inactive)
GI50 [25]: 31.7 µM (inactive)
GI50 [26]: 46.2 µM (inactive)
GI50 [27]: 32.7 µM (inactive)
GI50 [28]: 30.7 µM (inactive)
GI50 [29]: 78.9 µM (inactive)
GI50 [30]: 37.2 µM (inactive)
GI50 [31]: 39.9 µM (inactive)
GI50 [32]: 39.9 µM (inactive)
GI50 [33]: 40.4 µM (inactive)
GI50 [34]: 39.8 µM (inactive)
GI50 [35]: 22.7 µM (inactive)
GI50 [36]: > 100 µM (inactive)
GI50 [37]: > 100 µM (inactive)
GI50 [38]: 44.4 µM (inactive)
GI50 [39]: 72.3 µM (inactive)
GI50 [40]: 58.6 µM (inactive)
GI50 [41]: 86.7 µM (inactive)
GI50 [42]: 47.9 µM (inactive)
GI50 [43]: > 100 µM (inactive)
GI50 [44]: 43.4 µM (inactive)
GI50 [45]: 40.4 µM (inactive)
GI50 [46]: 22.3 µM (inactive)
GI50 [47]: > 100 µM (inactive)
GI50 [48]: > 100 µM (inactive)
GI50 [49]: 48.9 µM (inactive)
GI50 [50]: > 100 µM (inactive)
GI50 [51]: > 100 µM (inactive)
GI50 [52]: 24.1 µM (inactive)
GI50 [53]: 84.7 µM (inactive)
GI50 [54]: > 100 µM (inactive)
GI50 [55]: 24.3 µM (inactive)
GI50 [56]: 43.6 µM (inactive)
GI50 [57]: 35.4 µM (inactive)

COc1nc2c(N3CCCC3)nc(N3CCNCC3)nc2nc1NCc1ccccc1
GI50 [1]: 1.33 µM (inactive)
GI50 [3]: 2.01 µM (inactive)
GI50 [4]: 1.98 µM (inactive)
GI50 [5]: 1.85 µM (inactive)
GI50 [6]: 2.38 µM (inactive)
GI50 [7]: 1.58 µM (inactive)
GI50 [8]: 0.524 µM (active)
GI50 [9]: 1.75 µM (inactive)
GI50 [10]: 2.77 µM (inactive)
GI50 [58]: 1.39 µM (inactive)
GI50 [11]: 1.05 µM (active)
GI50 [12]: 1.72 µM
GI50 [13]: 1.68 µM (inactive)
GI50 [14]: 0.855 µM (active)
GI50 [15]: 1.79 µM (inactive)
GI50 [16]: 1.07 µM (active)
GI50 [17]: 2.08 µM (inactive)
GI50 [18]: 2.03 µM (inactive)
GI50 [19]: 1.67 µM (inactive)
GI50 [20]: 1.61 µM (inactive)
GI50 [21]: 1.47 µM (inactive)
GI50 [22]: 1.65 µM (inactive)
GI50 [23]: 1.76 µM (inactive)
GI50 [24]: 1.63 µM (inactive)
GI50 [25]: 1.39 µM (inactive)
GI50 [26]: 1.21 µM (inactive)
GI50 [27]: 1.9 µM (inactive)
GI50 [28]: 2.07 µM (inactive)
GI50 [29]: 2.34 µM (inactive)
GI50 [30]: 2.16 µM (inactive)
GI50 [31]: 1.95 µM (inactive)
GI50 [32]: 1.09 µM (active)
GI50 [33]: 4.17 µM (inactive)
GI50 [34]: 0.755 µM (active)
GI50 [35]: 3.03 µM (inactive)
GI50 [36]: 2.61 µM (inactive)
GI50 [37]: 2.83 µM (inactive)
GI50 [38]: 2.28 µM (inactive)
GI50 [39]: 1.69 µM (inactive)
GI50 [40]: 1.28 µM (inactive)
GI50 [41]: 2.03 µM (inactive)
GI50 [42]: 1.74 µM (inactive)
GI50 [43]: 1.75 µM (inactive)
GI50 [44]: 2.01 µM (inactive)
GI50 [45]: 1.66 µM (inactive)
GI50 [46]: 1.53 µM (inactive)
GI50 [47]: 2.05 µM (inactive)
GI50 [48]: 2.03 µM (inactive)
GI50 [59]: 1.71 µM (inactive)
GI50 [49]: 1.44 µM (inactive)
GI50 [50]: 1.32 µM (inactive)
GI50 [51]: 2.77 µM (inactive)
GI50 [52]: 1.41 µM (inactive)
GI50 [53]: 1.76 µM (inactive)
GI50 [54]: 1.35 µM (inactive)
GI50 [55]: 1.74 µM (inactive)
GI50 [56]: 1.86 µM (inactive)
GI50 [57]: 1.48 µM (inactive)
